Results reported in the supplement of paper PMC11451515.

Assays:
Details in all cases: 48 h
P12-Ichikawa [1] = test: cell viability relative to DMSO control; higher = less cytotoxic
Procedure, shortened: (§1)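 Viability was expressed as a per-plate percentage of DMSO wells, with cell-free wells as background. Leukemia cells (NOMO1 or SEM at 500 cells/well, P12-Ichikawa at 1000 cells/well) were adapted for at least four passages in each medium and seeded in 1536-well plates (5 μl). Library compounds in DMSO were pin-dosed over an 11-point threefold series from 47 μM to 0.79 nM, and CellTiter-Glo One luminescence was read after 48 h at 37°C.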

SEM cells [2] = test: as above
Procedure, shortened: as §1

NOMO1 [3] = test: AUC of viability dose-response curve (% viability x log10 dose units); higher = less sensitive
Procedure, shortened: (§2)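 Leukemia cells adapted to each medium were seeded in 1536-well plates (500 or 1000 cells/well) and given library compounds in DMSO for 48 h at 37°C. The 11 threefold doses spanned 47 μM to 0.79 nM, and CellTiter-Glo One luminescence was normalised per plate to DMSO and cell-free wells before four-parameter log-logistic fitting on log10 dose. Area under the curve was integrated with the trapezoidal rule, scaling curves above full viability and removing curves that failed quality control.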

P12-Ichikawa [4] = test: as above
Procedure, shortened: as §2

SEM cells [5] = test: as above
Procedure, shortened: as §2

NOMO1 [6] = test: cell viability relative to DMSO control; higher = less cytotoxic
Procedure, shortened: as §1

ClC1=CC=C2N/C3=N/C(=O)CN3CC2=C1Cl
cell viability [%]
Details	P12-Ichikawa [1]	SEM cells [2]
HPLM + 10% dialyzed FBS, 0.000781 µM	120	123
HPLM + 10% dialyzed FBS, 0.00234 µM	122	124
HPLM + 10% dialyzed FBS, 0.00702 µM	126	120
HPLM + 10% dialyzed FBS, 0.0211 µM	130	134
HPLM + 10% dialyzed FBS, 0.0632 µM	115	126
HPLM + 10% dialyzed FBS, 0.19 µM	122	119
HPLM + 10% dialyzed FBS, 0.569 µM	118	132
HPLM + 10% dialyzed FBS, 1.71 µM	115	138
HPLM + 10% dialyzed FBS, 5.12 µM	114	125
HPLM + 10% dialyzed FBS, 15.4 µM	112	115
HPLM + 10% dialyzed FBS, 46.1 µM	82.2	105
RPMI 5 mM glucose + 10% dialyzed FBS, 0.000781 µM	125	–
RPMI 5 mM glucose + 10% dialyzed FBS, 0.00234 µM	119	–
RPMI 5 mM glucose + 10% dialyzed FBS, 0.00702 µM	130	–
RPMI 5 mM glucose + 10% dialyzed FBS, 0.0211 µM	117	–
RPMI 5 mM glucose + 10% dialyzed FBS, 0.0632 µM	124	–
RPMI 5 mM glucose + 10% dialyzed FBS, 0.19 µM	127	–
RPMI 5 mM glucose + 10% dialyzed FBS, 0.569 µM	118	–
RPMI 5 mM glucose + 10% dialyzed FBS, 1.71 µM	118	–
RPMI 5 mM glucose + 10% dialyzed FBS, 5.12 µM	107	–
RPMI 5 mM glucose + 10% dialyzed FBS, 15.4 µM	105	–
RPMI 5 mM glucose + 10% dialyzed FBS, 46.1 µM	68.7	–

AUC of viability dose-response curve
Details	NOMO1 [3]	P12-Ichikawa [4]	SEM cells [5]
HPLM + 10% dialyzed FBS	456	464	468
RPMI 5 mM glucose + 10% FBS	445	456	446
RPMI 5 mM glucose + 10% dialyzed FBS	410	452	456

C[C@@H]1C/C=C/C=C/C=C/C=C/[C@@H](O[C@@H]2O[C@H](C)[C@@H](O)[C@H](N)[C@@H]2O)C[C@@H]2O[C@](O)(C[C@@H](O)C[C@@H]3O[C@H]3/C=C/C(=O)O1)C[C@H](O)[C@H]2C(=O)O
SEM cells [2], HPLM + 10% dialyzed FBS
Details	cell viability [%]
0.000781 µM	108
0.00234 µM	120
0.00702 µM	103
0.0211 µM	129
0.0632 µM	131
0.19 µM	119
0.569 µM	124
1.71 µM	106
5.12 µM	115
15.4 µM	120
46.1 µM	114

AUC of viability dose-response curve
Details	NOMO1 [3]	P12-Ichikawa [4]	SEM cells [5]
HPLM + 10% dialyzed FBS	449	439	475
RPMI 5 mM glucose + 10% FBS	460	466	461
RPMI 5 mM glucose + 10% dialyzed FBS	457	461	462

c1ccc2c(Cc3c[nH]c4ccccc34)c[nH]c2c1
cell viability [%]
Details	NOMO1 [6]	P12-Ichikawa [1]	SEM cells [2]
HPLM + 10% dialyzed FBS, 0.000781 µM	95	94.9	93.8
HPLM + 10% dialyzed FBS, 0.00234 µM	106	101	95.3
HPLM + 10% dialyzed FBS, 0.00702 µM	108	93.7	97.5
HPLM + 10% dialyzed FBS, 0.0211 µM	93.6	95.8	89.4
HPLM + 10% dialyzed FBS, 0.0632 µM	112	97	88.7
HPLM + 10% dialyzed FBS, 0.19 µM	112	95.4	82.2
HPLM + 10% dialyzed FBS, 0.569 µM	95.5	95.1	73.8
HPLM + 10% dialyzed FBS, 1.71 µM	89.7	91.1	80.3
HPLM + 10% dialyzed FBS, 5.12 µM	87.4	89.7	78.9
HPLM + 10% dialyzed FBS, 15.4 µM	80.4	87.4	62.1
HPLM + 10% dialyzed FBS, 46.1 µM	54	29.9	18.6
RPMI 5 mM glucose + 10% FBS, 0.000781 µM	89.8	100	106
RPMI 5 mM glucose + 10% FBS, 0.00234 µM	98.3	93.3	92.9
RPMI 5 mM glucose + 10% FBS, 0.00702 µM	87.8	95	96
RPMI 5 mM glucose + 10% FBS, 0.0211 µM	101	92.2	104
RPMI 5 mM glucose + 10% FBS, 0.0632 µM	97.7	82.2	90.3
RPMI 5 mM glucose + 10% FBS, 0.19 µM	86.8	90.4	81.1
RPMI 5 mM glucose + 10% FBS, 0.569 µM	96.1	86.7	73.8
RPMI 5 mM glucose + 10% FBS, 1.71 µM	89.8	91.2	78.6
RPMI 5 mM glucose + 10% FBS, 5.12 µM	85.2	88.7	76.4
RPMI 5 mM glucose + 10% FBS, 15.4 µM	85.8	89.3	71.5
RPMI 5 mM glucose + 10% FBS, 46.1 µM	78.9	32.8	14.6
RPMI 5 mM glucose + 10% dialyzed FBS, 0.000781 µM	99	86	103
RPMI 5 mM glucose + 10% dialyzed FBS, 0.00234 µM	92	94.3	99
RPMI 5 mM glucose + 10% dialyzed FBS, 0.00702 µM	106	92.2	109
RPMI 5 mM glucose + 10% dialyzed FBS, 0.0211 µM	104	84.8	101
RPMI 5 mM glucose + 10% dialyzed FBS, 0.0632 µM	93.3	89.6	73.2
RPMI 5 mM glucose + 10% dialyzed FBS, 0.19 µM	97.7	92	82.7
RPMI 5 mM glucose + 10% dialyzed FBS, 0.569 µM	93.2	96.8	72.3
RPMI 5 mM glucose + 10% dialyzed FBS, 1.71 µM	94.2	94	74.7
RPMI 5 mM glucose + 10% dialyzed FBS, 5.12 µM	88.5	86.3	68.3
RPMI 5 mM glucose + 10% dialyzed FBS, 15.4 µM	84	85.2	56.1
RPMI 5 mM glucose + 10% dialyzed FBS, 46.1 µM	57.1	38	15.8

AUC of viability dose-response curve
Details	NOMO1 [3]	P12-Ichikawa [4]	SEM cells [5]
HPLM + 10% dialyzed FBS	440	434	385
RPMI 5 mM glucose + 10% FBS	434	420	396
RPMI 5 mM glucose + 10% dialyzed FBS	444	417	376
